Where two headings read alike, the source gives them in different places.
Tests used:
HUVEC cells [1] = assay: Invasion (chemoinvasion) assay, Boyden chambers, matrigel; assay type: cell-based, human; conditions: for reduction of endothelial cell invasion: 10 μM, HUVEC pre-treated for 24 hours, values standardised on control, FIG. 6; for invasion in the presence of serum (FBS): 24 hours' pre-treatment, even at 10 μM, *P<0.05, FIG. 3
Description: The chemoinvasion assay was conducted with Boyden chambers [Albini A, Iwamoto Y, Kleinman H K, Martin G R, Aaronson S A, Kozlowski J M, McEwan R N. A rapid in vitro assay for quantitating the invasive potential of tumor cells. Cancer Res. 1987 Jun. 15; 47(12):3239-45; Albini A, Benelli R. The chemoinvasion assay: a method to assess tumor and endothelial cell invasion and its modulation. Nat Protoc. 2007; 2(3):504-11]. The HUVEC cells (5×10^4) were pre-treated for 24 hours with the inhibitors, resuspended in serum-free medium, and plated in the upper compartment of the chamber. The complete medium was added in the lower compartment of the chamber, and used as chemoattractant. The 12 m polycarbonate filters were coated with matrigel (1 mg/mL). After 18 hours' incubation, the cells in the upper compartment of the chamber were mechanically removed, while those adhering to the lower surface of the filter were fixed in absolute ethanol and stained with DAPI. The cells were counted double-blind in eight consecutive fields by fluorescence microscopy.

fibrosarcoma cells [2] = conditions: cited from earlier work
HUVEC cells [3] = assay: Migration (chemotaxis) assay, Boyden chambers; assay type: cell-based, human; conditions: for reduction of endothelial cell migration: 10 μM, HUVEC pre-treated for 24 hours, values standardised on control, FIG. 7; for inhibition of migration: 24 hours' pre-treatment, 10 μM and 20 μM, *P<0.05, FIG. 2
Description: The chemotaxis assay was conducted with Boyden chambers [Albini A, Iwamoto Y, Kleinman H K, Martin G R, Aaronson S A, Kozlowski J M, McEwan R N. A rapid in vitro assay for quantitating the invasive potential of tumor cells. Cancer Res. 1987 Jun. 15; 47(12):3239-45; Albini A, Benelli R. The chemoinvasion assay: a method to assess tumor and endothelial cell invasion and its modulation. Nat Protoc. 2007; 2(3):504-11]. The HUVEC cells (5×10^4) were pre-treated for 24 hours with the inhibitors, resuspended in serum-free medium, and plated in the upper compartment of the Boyden chamber. The complete medium was added in the lower compartment of the chamber, and used as chemoattractant. The two chambers were separated by polycarbonate filters ([…]) coated with collagen (50 μg/mL). After 6 hours' incubation at 37° C., the filters were recovered, the cells present on the upper surface of the filter were mechanically removed, and those on the lower surface were fixed in absolute ethanol and stained with DAPI. The cells were then counted in eight consecutive fields on each filter by fluorescence microscopy.

HUVEC cells [4] = assay: MTT colorimetric viability assay; assay type: cell-based, human; conditions: for inhibition of cell growth: 20 μM, after 24 hours' treatment, FIG. 1
Description: The viability of the HUVEC cells was evaluated with the MTT colorimetric assay (3-(4,5-dimethylthiazol-2-yl)-2,5-diphenyltetrazolium bromide). The cells (1000/well) were plated in complete medium in 96-well plates, and after complete adherence the medium was replaced with a new medium with or without the various inhibitors at different concentrations. The plates were processed at different incubation times (24, 48, 72 and 96 hours), and the absorbance was measured at 570 nm.

HUVEC cells [5] = assay: Morphogenesis on matrigel (capillary-like structures); assay type: cell-based, human; conditions: 24 hours' pre-treatment, FIG. 4
Description: A 24-well plate was coated with 300 μl/well of liquid matrigel (10 mg/mL) at 4° C., using cold pipettes and avoiding bubbles. The plate was then incubated for one hour at 37° C., until the matrigel polymerised. The HUVEC cells, pre-treated with the different inhibitors, were resuspended in 1 mL of complete medium and then plated in the different wells. The serum-free medium was used as negative control (CTRL−). After 6 hours' incubation, the organisation of the cells in capillary-like structures was examined with an inverted microscope equipped with a camera for the acquisition of images and a digital analysis system.

HUVEC cells [6] = assay: Apoptosis assay (Annexin V / 7-AAD cytofluorimetry); assay type: cell-based, human; conditions: 10 μM, 24 hours, FIG. 5
Description: (§1) The HUVEC cells (1×10^5) were plated in six-well plates and left to adhere for 18 hours. The next day, the cells were pre-treated with inhibitors LR6 and LR7 (10 μM) in the presence of complete medium. After 24 hours, the cells were detached, washed with PBS and transferred to tubes for cytofluorimetric analysis. The cells were pelletted and resuspended in Annexin V-binding buffer (0.01M HEPES (4-(2-hydroxyethyl)-1-piperazineethanesulphonic acid) (pH 7.4); 0.14 M NaCl; 2.5 mM CaCl2. Fluorescein isothiocyanate Annexin V and 7-amino-actinomycin D were added to the tubes, and the cells were incubated for 15 minutes at room temperature in the dark. The cells were then washed in PBS, the supernatant was removed and the cells resuspended in […] of binding buffer. The samples were analysed on a FACSCanto cytofluorimeter (BD Biosciences), and analysed with FACSDiva Software 6.1.2.

[7] = as above; assay type: cell-based, human; conditions: human, HUVEC cells, FIG. 5, read-out: percentage of viability
Description: as §1

[8] = tested on: hepatocarcinoma cell lines; conditions: 25 μM; cited from earlier work
endothelial cells [9] = conditions: cited from earlier work
MMP-9 = MMP-9 (Homo sapiens, UniProt P14780); conditions: 10 μM; cited from earlier work
endothelial cells [10] = conditions: cited from earlier work; remark: listed apart in the source
hepatocytes = conditions: high concentrations (exceeding 100 μM); cited from earlier work
endothelial cells [11] = conditions: cited from earlier work; remark: listed apart in the source
[12] = tested on: prostate cancer cell lines; conditions: 40 μM; cited from earlier work
fibrosarcoma cells [13] = conditions: 10 μM; cited from earlier work
MMP-2 = molecular target: T1, MMP-2 (Homo sapiens, UniProt P08253); conditions: 10 μM; cited from earlier work
T1 sequence (P08253 110-660): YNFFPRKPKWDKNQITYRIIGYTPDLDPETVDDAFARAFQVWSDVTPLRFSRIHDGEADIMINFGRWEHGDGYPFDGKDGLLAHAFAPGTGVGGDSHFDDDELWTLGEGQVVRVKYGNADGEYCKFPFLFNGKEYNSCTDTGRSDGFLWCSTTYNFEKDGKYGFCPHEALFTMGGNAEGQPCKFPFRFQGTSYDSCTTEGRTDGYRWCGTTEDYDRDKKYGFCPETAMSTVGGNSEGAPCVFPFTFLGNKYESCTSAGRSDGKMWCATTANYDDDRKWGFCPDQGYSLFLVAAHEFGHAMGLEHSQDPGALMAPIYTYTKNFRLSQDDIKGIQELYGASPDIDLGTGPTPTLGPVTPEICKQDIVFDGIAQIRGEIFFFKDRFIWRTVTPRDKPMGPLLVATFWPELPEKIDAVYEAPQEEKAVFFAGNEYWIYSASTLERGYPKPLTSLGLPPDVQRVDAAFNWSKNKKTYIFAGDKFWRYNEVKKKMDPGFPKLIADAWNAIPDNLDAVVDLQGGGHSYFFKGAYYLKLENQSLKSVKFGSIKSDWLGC

Sequence of MMP-9 (P14780 94-707, species assumed): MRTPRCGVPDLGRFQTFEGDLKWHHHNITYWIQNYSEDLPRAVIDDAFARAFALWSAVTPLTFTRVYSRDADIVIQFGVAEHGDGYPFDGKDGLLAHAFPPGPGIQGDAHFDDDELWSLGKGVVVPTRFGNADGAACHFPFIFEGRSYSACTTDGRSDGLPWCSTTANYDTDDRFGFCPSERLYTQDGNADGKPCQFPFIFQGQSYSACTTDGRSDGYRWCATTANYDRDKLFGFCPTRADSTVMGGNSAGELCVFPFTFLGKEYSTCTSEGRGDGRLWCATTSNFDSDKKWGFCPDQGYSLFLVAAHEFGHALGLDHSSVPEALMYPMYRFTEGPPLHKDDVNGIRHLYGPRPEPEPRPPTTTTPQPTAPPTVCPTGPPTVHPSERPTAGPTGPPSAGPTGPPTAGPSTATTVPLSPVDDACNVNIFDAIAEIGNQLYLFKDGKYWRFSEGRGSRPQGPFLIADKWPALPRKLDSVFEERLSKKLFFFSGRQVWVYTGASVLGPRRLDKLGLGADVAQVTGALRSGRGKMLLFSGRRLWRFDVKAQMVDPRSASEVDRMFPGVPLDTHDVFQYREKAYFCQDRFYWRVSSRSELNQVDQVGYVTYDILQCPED

COCOc1cc(OC)c(C(=O)/C=C/c2ccc(F)cc2F)c(OCOC)c1CC=C(C)C [LR17, (E)-3-(2,4-difluoro-phenyl)-1-[6-methoxy-2,4-dimethoxymethyloxy-3-(3-methyl-but-2-enyl)phenyl]-prop-2-en-1-one]
reduction of endothelial cell invasion (HUVEC cells [1]): ~75%

O-methylxanthohumol ether SEM [XN-SEM]
cytotoxic effect (fibrosarcoma cells [2]): no cytotoxic effect

COc1cc(O)c(CC=C(C)C)c(O)c1C(=O)/C=C/c1ccc(F)cc1F [LR19, (E)-3-(2,4-difluorophenyl)-1-[2,4-dihydroxy-6-methoxy-3-(3-methyl-but-2-enyl)-phenyl]-prop-2-en-1-one]
reduction of endothelial cell migration (HUVEC cells [3]): about 80%

COc1cc(O)c(CC=C(C)C)c(O)c1C(=O)/C=C/c1ccc(F)cc1 [LR6, (E)-1-[2,4-dihydroxy-6-methoxy-3-(3-methyl-but-2-enyl)prenyl]-3-(4-fluorophenyl)-prop-2-en-1-one]
cell proliferation (HUVEC cells [4]; 10 μM, after 72 and 96 hours' treatment): able to reduce cell proliferation
inhibition of cell growth (HUVEC cells [4]): Significant inhibition of cell growth
FBS-dependent morphogenesis (HUVEC cells [5]): interferes with FBS-dependent morphogenesis
apoptosis (HUVEC cells [6]): absence of apoptosis
viability at 24 h, 10 µM [7]: ~90%
reduction of endothelial cell migration (HUVEC cells [3]): ~75%
inhibition of migration (HUVEC cells [3]): Significant inhibition of migration
invasion in the presence of serum (FBS) (HUVEC cells [1]): significantly reduces invasion

COc1cc2c(c(O)c1C(=O)/C=C/c1ccc(O)cc1)C=CC(C)(C)O2 [XNC, xanthohumol C]
cytotoxic effect (fibrosarcoma cells [2]): loss of cytotoxic activity

COc1cc(O)c(CC=C(C)C)c(O)c1C(=O)/C=C/c1ccc(O)cc1 [XN, Xanthohumol]
apoptosis [8]: induces apoptosis
chemotaxis of the endothelial cells and invasion in vitro (endothelial cells [9]; 5 μM): inhibits chemotaxis
chemotaxis of the endothelial cells and invasion in vitro (endothelial cells [9]; 10 μM): complete inhibition
activity of MMP-9 (MMP-9): inhibits
toxicity (endothelial cells [10]; 200 μM): no toxicity was observed
concentration interval in which effects on morphogenesis are evident (endothelial cells [10]): 5 to 10 µM
viability of the hepatocytes (hepatocytes): no effect on the viability
reduction of endothelial cell migration (HUVEC cells [3]): about 50%
cytotoxic activity against activated endothelial cells (endothelial cells [11]; 10 μM): potent cytotoxic activity
concentration at which cell death is observed (endothelial cells [11]): exceeding 25 μM
effect on endothelial cells at lower concentrations (endothelial cells [11]; concentrations lower than 10 μM, even after long exposure times): does not exhibit any significant effect
growth of prostate cancer cell lines [12]: inhibitory effect
invasion by fibrosarcoma cells (fibrosarcoma cells [13]): inhibits invasion
activity of MMP-2 (MMP-2): strongly inhibited
reduction of endothelial cell invasion (HUVEC cells [1]): about 60%

COc1cc(O)c(CC=C(C)C)c(O)c1C(=O)/C=C/c1ccc(F)c(F)c1 [LR16, (E)-3-(3,4-difluorophenyl)-1-[2,4-dihydroxy-6-methoxy-3-(3-methyl-but-2-enyl)-phenyl]-prop-2-en-1-one]
reduction of endothelial cell invasion (HUVEC cells [1]): about 80%

COCOc1cc(OC)c(C(=O)/C=C/c2ccc(F)cc2)c(O)c1CC=C(C)C [LR7, (E)-3-(4-fluorophenyl)-1-[2-hydroxy-6-methoxy-4-(methoxymethyloxy)-3-(3-methyl-but-2-enyl]-phenyl)prop-2-en-1-one]
inhibition of cell growth (HUVEC cells [4]): Significant inhibition of cell growth
cytostatic activity (HUVEC cells [4]; 10 and 20 μM, after 48 hours' incubation): exhibited cytostatic activity
FBS-dependent morphogenesis (HUVEC cells [5]): interferes with FBS-dependent morphogenesis
apoptosis (HUVEC cells [6]): absence of apoptosis
viability at 24 h, 10 µM [7]: ~90%
inhibition of migration (HUVEC cells [3]): Significant inhibition of migration
invasion in the presence of serum (FBS) (HUVEC cells [1]): significantly reduces invasion
